Data on one compound can be found in US10316313B2, “Mesoporous catalysts of magnetic nanoparticles and free-radical-producing enzymes, and methods of use” (Cornell University, priority 2011, dated 2019).

“Also recorded” adds a separate entry of the source.

Assay [1] concerns the target T1, Horseradish Peroxidase (HRP, E.C. 1.11.1.7, type VI-A) entrapped in M25 magnetite nanoparticle clusters (M25-BNC) (Armoracia rusticana, UniProt P00433).
T1 construct: purchased
T1 sequence (P00433 31-338 limits assumed): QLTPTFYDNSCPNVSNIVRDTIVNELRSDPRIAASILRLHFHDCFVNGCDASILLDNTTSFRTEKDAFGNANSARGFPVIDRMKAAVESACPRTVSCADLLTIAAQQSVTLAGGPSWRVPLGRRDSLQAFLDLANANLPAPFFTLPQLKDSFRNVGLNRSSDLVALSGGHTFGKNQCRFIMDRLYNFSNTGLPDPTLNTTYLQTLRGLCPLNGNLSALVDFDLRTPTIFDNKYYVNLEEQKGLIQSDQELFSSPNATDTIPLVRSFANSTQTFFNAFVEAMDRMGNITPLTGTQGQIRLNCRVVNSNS
Kind of assay: Phenol/AAP assay, H2O2 substrate inhibition model, M25-BNC. The assay is classed as biochemical. From the text: (§1) The enzymes used in this study were Horseradish Peroxidase (HRP, E.C. 1.11.1.7, type VI-A), Lignin Peroxidase (LiP, E.C. 1.11.1.14), Manganese Peroxidase (MnP; E.C. 1.11.1.13) Versatile Peroxidase (syn. hybrid peroxidase, manganese-lignin peroxidase: VeP EC 1.11.1.16), and laccase. All enzymes used herein were obtained from commercial sources. […] High activity forms were obtained by further purification by FPLC (AKTA Explorer, GE Bioscience) using an anionic exchange column (Resource Q, GE Bioscience). Laccase was used without further purification. Protein signal was monitored at 280 nm and the heme signal at 405 nm. For each enzyme, the fractions with a RZ above 1 were pulled together, concentrated and aliquoted. Phenol, homovanillic acid, veratryl alcohol, methoxylphenol, 4-aminoantipyrine (AAP), glucose (the foregoing being at 98% purity), sodium phosphate buffer (PBS) of pH 7.4 and 67 mM, magnetite microsphere powder, manganese sulfate, hydrogen peroxide, FeCl3.6H2O, and FeCl2.4H2O, O-phosphoethydiamine, gold tetrachlorohydrate, and malonate and tartrate disodium salts were obtained from commercial sources.
(§2) Magnetite nanoparticles were synthesized by co-precipitation of Fe^2+ and Fe^3+ under alkaline conditions in a bubbling nitrogen atmosphere at 25° C. (M25) or 90° C. (M90). An acidic solution (25 ml) of the iron salts (2 g of FeCl2.4H2O and 5.2 g of FeCl3.6H2O) was added dropwise to NaOH (250 ml, 1.5 M) under constant stirring. Non-oxidizing conditions were achieved by bubbling all solutions with nitrogen for 15 minutes prior to reaction. The instantaneous black precipitation of Fe3O4 was captured with a neodymium magnet, washed, and neutralized, and kept in distilled water until further use.
(§3) All BNCs were formed with either M90 or M25 magnetite nanoparticles, gold-coated or not. The BNCs were formed with either Horseradish peroxidase, Lignin Peroxidase, Manganese Peroxidase or Versatile Peroxidase. Typical BNC synthesis required the MNPs to be initially monodispersed (i.e., individualized and non-aggregated MNPs). MNPs were sonicated in an ultrasonic bath for 20 minutes at room temperature and used immediately to form the BNCs. In preliminary experiments, the effects of buffer composition, buffer strength, and incubation time were investigated to measure their influence on the formation of the BNCs and the activity of the enzymes. […]
(§4) The peroxidase activity of native HRP and BNC was monitored using the chromogenic phenol/AAP assay that generates phenoxy radicals that readily react with […] to form the pink-colored quinoneimine dye. An automated plate-reader (Synergy 4, Biotek) with injection capabilities and temperature-controlled chamber was used to record the absorbance of the solution at 510 nm in 96-well plates (4 replicates) for 30 minutes. […]

Assay [2] concerns the target T2, Horseradish Peroxidase (HRP, E.C. 1.11.1.7, type VI-A) entrapped in M90 magnetite nanoparticle clusters (M90-BNC) (Armoracia rusticana, UniProt P00433).
T2 construct: purchased
T2 sequence (P00433 31-338 limits assumed): T1 sequence (P00433 31-338 limits assumed)
Kind of assay: Phenol/AAP assay, H2O2 substrate inhibition model, M90-BNC. The assay is classed as biochemical.
Excerpt: as §1, §2, §3, §4

[3] abbreviates: compared to the free enzyme at the same concentration.

As for `OO` [H2O2, hydrogen peroxide], the “Ki (H2O2 substrate inhibition constant)” value is given as “in the same range than the free HRP; also recorded: in the same range, if not lower, than for the free enzymes” in assay [1] (compared to free HRP) and “drastically increased” in assay [2] (in words, compared to free HRP). For the same compound, the Km entry in assay [1] (compared to free HRP) is “higher Km; also recorded: increased in the case of BNCs formed with M25”. Also, the Vmax result is listed as “two to three times greater than the free enzyme; also recorded: increased in the case of BNCs formed with M25 compared to the Vmax of the free enzymes” in assay [1] (setting [3]) and “similar; also recorded: No difference in Vmax” in assay [2] (compared to free HRP). Moreover, the kcat entry was “two to three times greater than the free enzyme; also recorded: drastically increased in the case of BNCs formed with M25 compared to the free enzyme” in assay [1] (setting [3]) and “also increased for lower concentrations of enzymes” in assay [2] (compared to free HRP). In addition, the “Ki (H2O2 substrate inhibition constant), times greater than the free HRP” value in assay [2] (ratio to free HRP) was “about 10 times”.
